In patent US5834429A, “Small peptides which inhibit binding to T-4 receptors and act as immunogens” (priority 1993, dated 1998):

How the values were obtained:
HTLV-III virus (HIV) = assay: Blockade of viral infection of human T cells (reverse transcriptase activity); type: cell-based; conditions: FIG. 3; for rank order of potencies in inhibiting viral infectivity: four peptides
Description: Separation of T-Lymphocyte Subsets. Subsets of T cells were obtained by treatment of PERCOLL density-purified peripheral blood T cells with specific monoclonal antibodies (T4 or T8) at 10 μg/ml. The treated cells were then panned (21) on a plastic Petri dish that was coated with goat [F(ab')2 ] anti-mouse immunoglobulin (Sero Lab, Eastbury, Mass.) for 30 min at 4° C. The nonadherent cells were then removed, washed, and analyzed for reactivity by flow cytometry. The separated T4 and T8 cell populations have <5% contamination of other T-cell subsets. Cells were then cultured with phytohemagglutinin (1 μg/ml) for 72 hr and exposed to HIV as described below. Infected cells were phenotypically characterized when cytotoxicity assays were performed.
Virus Infection. The HTLV-III virus used for infection was isolated from an interleukin 2 (IL-2)-dependent cultured T-cell line established from fresh AIDS patient material and passaged into HuT 78, a permissive IL-2-independent cell line.

[1] = tested on: T4 antigen (gp120 receptor) on fresh rat hippocampal membranes; assay: Displacement of specific 125I-gp120 binding to brain membranes; conditions: for potency compared with peptide T (in words): FIG. 3; for rank order of potencies in inhibiting receptor binding: four peptides
Description: HTLV-IIIb isolate of HIV was propaged in H9 cells, and the gp120 was isolated by immunoaffinity chromatography and preparative NaDodSO4 /PAGE. Purified gp120 was labeled with ^125 I by the chloramine-T method.
Fresh human, monkey, and rat hippocampus were quickly homogenized (POLYTRON, Brinkmann Instruments) in 100 vol of ice-cold 50 mM Hepes (pH 7.4). The membranes collected by centrifugation (15,000×g) were washed in the original buffer volume and were used fresh or stored at -70° C. Before use, brain membranes and highly purified T cells (ref. 16; gift of Larry Wahl) were preincubated for 15-30 min in phosphate-buffered saline (PBS). Membranes derived from 2 mg (initial wet weight) of brain (.chi.100 μg of protein) were incubated with 28,000 cpm of ^125 I-gp120 for 1 hr at 37° C. in 200 μl (final volume) of 50 mM Hepes containing 0.1% bovine serum albumin and the peptidase inhibitors bacitracin (0.005%), aprotinin (0.005%), leupeptin (0.001%), and chymostatin (0.001%). Incubations were rapidly vacuum-filtered and counted to determine the receptor-bound material.

T4 viral receptors = T4 viral receptors (Homo sapiens, UniProt P01730); assay: Activity of cysteine-extended core peptide (test not specified)

With C[C@@H](N)C(=O)N[C@@H](CO)C(=O)N[C@H](C(=O)N[C@H](C(=O)N[C@H](C(=O)N[C@@H](CC(N)=O)C(=O)N[C@@H](Cc1ccc(O)cc1)C(=O)N[C@H](C(N)=O)[C@@H](C)O)[C@@H](C)O)[C@@H](C)O)[C@@H](C)O [D-[Ala]1-peptide T-amide] the “rank order of potencies in inhibiting viral infectivity” value (HTLV-III virus (HIV)) was “D-[Ala]1 -peptide T-amide>D-[Ala]1 -peptide T>peptide T>D-[Thr]8 -peptide T-amide”, the “potency compared with peptide T (in words)” value [1] was “somewhat greater potency” and the “rank order of potencies in inhibiting receptor binding” value [1] was “D-[Ala]1 -peptide T-amide>D-[Ala]1 -peptide T>peptide T>D-[Thr]8 -peptide T-amide”.
In the case of C[C@@H](N)C(=O)N[C@@H](CO)C(=O)N[C@H](C(=O)N[C@H](C(=O)N[C@H](C(=O)N[C@@H](CC(N)=O)C(=O)N[C@@H](Cc1ccc(O)cc1)C(=O)N[C@H](C(=O)O)[C@@H](C)O)[C@@H](C)O)[C@@H](C)O)[C@@H](C)O [D-[Ala]1-peptide T], the “rank order of potencies in inhibiting viral infectivity” value (HTLV-III virus (HIV)) was “D-[Ala]1 -peptide T-amide>D-[Ala]1 -peptide T>peptide T>D-[Thr]8 -peptide T-amide”, the “potency compared with peptide T (in words)” value [1] was “consistently more potent” and the “rank order of potencies in inhibiting receptor binding” value [1] was “D-[Ala]1 -peptide T-amide>D-[Ala]1 -peptide T>peptide T>D-[Thr]8 -peptide T-amide”.
With C[C@H](N)C(=O)N[C@@H](CO)C(=O)N[C@H](C(=O)N[C@H](C(=O)N[C@H](C(=O)N[C@@H](CC(N)=O)C(=O)N[C@@H](Cc1ccc(O)cc1)C(=O)N[C@H](C(=O)O)[C@@H](C)O)[C@@H](C)O)[C@@H](C)O)[C@@H](C)O [peptide T] the “rank order of potencies in inhibiting viral infectivity” value (HTLV-III virus (HIV)) was “D-[Ala]1 -peptide T-amide>D-[Ala]1 -peptide T>peptide T>D-[Thr]8 -peptide T-amide”, the “blockade of viral infectivity (in words)” value (HTLV-III virus (HIV); human T cells) was “blocked” and the “inhibition of gp120 binding to brain membranes (in words)” value [1] was “inhibit binding of gp 120 to the brain membranes”. The “rank order of potencies in inhibiting receptor binding” value [1] was “D-[Ala]1 -peptide T-amide>D-[Ala]1 -peptide T>peptide T>D-[Thr]8 -peptide T-amide” and the “concentration range at which 125I-gp120 binding is significantly inhibited” value ([1]; fresh rat hippocampal membranes, FIG. 2C) was roughly 0.1 nM.
With “CYS-THR-THR-ASN-TYR-THR-CYS (CTTNYTC; printed: CYS-THR-THR-ASN-TYR-THR-CYS)” the “activity (in words)” value (T4 viral receptors) was “active”.
For “substance P [1-8]: irrelevant octapeptide substance P [1-8] (RPKPQQFF; Substance P; UniProt P20366 58-65, looked up, fragment) [reference compound]”, the “inhibition of gp120 binding to brain membranes (in words)” value [1] was “not”.
